Experimental data as given in ChEMBL document CHEMBL1201862, “PubChem BioAssay data set” (2004).
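Interpolation was linear, between the two tested concentrations surrounding the appropriate level; five concentrations were tested over 48 hours in 96-well plates. The concentration for 50% growth inhibition is given as GI50.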 The source made the active and inactive calls. Cut-off read from the data, not from the text of the source: active = GI50 up to about 1.1 µM and inactive = higher.

What was measured:
Assay in all cases: NCI-60 cell line screen, 48 h
DMS-273 = tested on: DMS-273
M19-MEL = tested on: M19-MEL
LXFL 529 = tested on: LXFL 529
KM-20L2 = tested on: KM-20L2
HOP-18 = tested on: HOP-18
RXF 631 = tested on: RXF 631
XF498 = tested on: XF498
SNB-78 = tested on: SNB-78
DLD-1 = tested on: DLD-1

Compound	GI50 (DMS-273)	GI50 (M19-MEL)	GI50 (LXFL 529)	GI50 (KM-20L2)	GI50 (HOP-18)	GI50 (RXF 631)	GI50 (XF498)	GI50 (SNB-78)	GI50 (DLD-1)
C=C1C(=O)C23[C@H](O)C1CC[C@H]2[C@]12COC3(O)[C@@H](O)[C@@H]1C(C)(C)CC[C@@H]2O	13.6 µM (inactive)	12.9 µM (inactive)	1.27 µM (inactive)	13.7 µM (inactive)	12.2 µM (inactive)	10.1 µM (inactive)	3.46 µM (inactive)	3.44 µM (inactive)	11.3 µM (inactive)
CS(=O)(=O)CC1=Nc2nnc(CCCCCCCc3nnc4n3C(=O)C(CS(C)(=O)=O)=N4)n2C1=O	–	> 100 µM (inactive)	> 100 µM (inactive)	> 100 µM (inactive)	> 100 µM (inactive)	–	> 100 µM (inactive)	–	–
CC(=O)OCCOCNC(=S)N/N=C(\C)c1cccs1	> 100 µM (inactive)	> 100 µM (inactive)	> 100 µM (inactive)	> 100 µM (inactive)	> 100 µM (inactive)	–	> 100 µM (inactive)	> 100 µM (inactive)	> 100 µM (inactive)
C[N+](C)(C)CC(=O)N/N=C/c1oc(-c2c(O)ccc3ccccc23)c(-c2c(O)ccc3ccccc23)c1[N+](=O)[O-]	–	20.4 µM (inactive)	14.8 µM (inactive)	3.1 µM (inactive)	15.9 µM (inactive)	–	20.6 µM (inactive)	–	14.1 µM (inactive)
COc1ccc(/C=C\c2cc(OC)c(OC)c(OC)c2)cc1OC(=O)CC(N)C(=O)O (stereo not drawn)	0.00195 µM (active)	0.00135 µM (active)	0.00191 µM (active)	3.7 µM (inactive)	0.703 µM (active)	–	0.00239 µM (active)	0.00208 µM (active)	0.0041 µM (active)
N#Cc1c(-c2ccccc2)cc(-c2cccs2)c(C#N)c1N	> 100 µM (inactive)	> 10 µM (inactive)	> 100 µM (inactive)	> 100 µM (inactive)	0.0134 µM (active)	–	> 100 µM (inactive)	> 100 µM (inactive)	> 100 µM (inactive)
COc1cccc(N2C(=O)C3C4C=C5c6ccccc6N(c6ccccc6)C5(C3C2=O)[C@H]2C(=O)N(c3cccc(OC)c3)C(=O)[C@@H]42)c1 (stereo partly drawn)	> 100 µM (inactive)	> 100 µM (inactive)	> 100 µM (inactive)	> 100 µM (inactive)	> 100 µM (inactive)	> 100 µM (inactive)	> 100 µM (inactive)	> 100 µM (inactive)	> 100 µM (inactive)
NC(=O)/C=C/C(=O)O	> 5000 µM (inactive)	> 5000 µM (inactive)	> 5000 µM (inactive)	–	> 5000 µM (inactive)	–	–	> 5000 µM (inactive)	> 5000 µM (inactive)
COc1cc2cccc(NC(=O)c3cc(OC)c(OC)c(OC)c3Br)c2cc1OC	–	10.2 µM (inactive)	2.52 µM (inactive)	25.7 µM (inactive)	20.6 µM (inactive)	–	2.4 µM (inactive)	17.1 µM (inactive)	24.8 µM (inactive)
COC(=O)/C(=C/c1ccc(OC)cc1)c1cc(OC)c(OC)c(OC)c1	0.746 µM (active)	3.46 µM (inactive)	3.73 µM (inactive)	1.12 µM (inactive)	> 100 µM (inactive)	–	4.89 µM (inactive)	5.02 µM (inactive)	2.61 µM (inactive)
CCOC(=O)C1Cc2c(ccc(OC)c2OC)C(=O)C1N (stereo not drawn)	> 100 µM (inactive)	> 100 µM (inactive)	94.8 µM (inactive)	> 100 µM (inactive)	97.5 µM (inactive)	> 100 µM (inactive)	> 100 µM (inactive)	> 100 µM (inactive)	> 100 µM (inactive)
O=C(O/N=C1/CCC/C1=C\c1ccccc1)c1ccc([N+](=O)[O-])cc1	> 100 µM (inactive)	15.5 µM (inactive)	> 100 µM (inactive)	> 100 µM (inactive)	> 100 µM (inactive)	> 100 µM (inactive)	–	> 100 µM (inactive)	> 100 µM (inactive)
COc1cccc(/C=N/NC(N)=O)c1O	–	–	–	> 100 µM (inactive)	–	–	–	–	–
CC(=O)CN(Cc1cc(C)c2c(c1)c1ccccc1n2Cc1ccccc1)S(=O)(=O)c1ccc(C)cc1	> 100 µM (inactive)	> 100 µM (inactive)	> 100 µM (inactive)	–	> 100 µM (inactive)	> 100 µM (inactive)	> 100 µM (inactive)	> 100 µM (inactive)	> 100 µM (inactive)
O=C(CNC(=O)OCc1ccccc1)Oc1ccccc1	> 100 µM (inactive)	> 100 µM (inactive)	> 100 µM (inactive)	> 100 µM (inactive)	> 100 µM (inactive)	–	> 100 µM (inactive)	> 100 µM (inactive)	> 100 µM (inactive)
